Experimental data reported in patent publication US9540427B2, “Peptide-based stat inhibitor” (The United States of America, as represented by the …, priority 2007, dated 2017).

Assays:
STAT3-deficient MEFs = test: Survival of STAT3-deficient MEFs; assay type: cell-based, mouse; settings: STAT3-deficient MEFs (data not shown)
Text: (§1) Furthermore, survival of normal mouse embryonic fibroblasts (MEFs) and STAT3-deficient MEFs was not affected by treatment with STAT3-Hel2A-2 (data not shown). […] This observation potentially provides a basis for an enhanced therapeutic ratio, based on differential inhibitor effects

[1] = test system: normal mammary epithelial cells MCF-10A; test: MTT assay of growth and viability, MCF-10A; assay type: cell-based; settings: escalating doses
Method: Three breast cancer cell lines (MDA-MB-231, T47D, and MDA-MB-435) and normal breast epithelial (MCF-10A) were treated with escalating doses of STAT3-Hel2A-2 (SEQ ID NO: 20). Cell proliferation and cell death were estimated by MTT assay.

[2] = test system: normal mouse embryonic fibroblasts (MEFs); test: Survival of normal mouse embryonic fibroblasts; assay type: cell-based; settings: normal MEFs (data not shown)
Text: as §1

CCCC[C@H](NC(=O)[C@H](CCCNC(=N)N)NC(=O)[C@H](CCCNC(=N)N)NC(=O)[C@H](CC(N)=O)NC(=O)[C@@H]1CCCN1C(=O)[C@H](Cc1ccccc1)NC(=O)[C@H](Cc1c[nH]c2ccccc12)NC(=O)[C@@H](NC(=O)[C@H](CCCCN)NC(=O)[C@@H](NC(=O)[C@H](CCC(N)=O)NC(=O)[C@H](CCCNC(=N)N)NC(=O)[C@H](Cc1ccc(O)cc1)NC(=O)[C@H](CC(C)C)NC(=O)[C@H](CCCCN)NC(=O)[C@H](Cc1c[nH]cn1)NC(=O)[C@H](CC(C)C)NC(=O)[C@H](CCC(N)=O)NC(=O)[C@H](CCC(=O)O)NC(=O)[C@H](CC(C)C)NC(=O)[C@H](Cc1ccc(O)cc1)NC(=O)[C@H](CCCNC(=N)N)NC(=O)[C@@H](NC(=O)[C@H](CC(=O)O)NC(=O)[C@@H](N)CC(C)C)[C@@H](C)O)[C@@H](C)CC)[C@@H](C)CC)C(=O)N[C@@H](CCCCN)C(=O)N[C@@H](Cc1c[nH]c2ccccc12)C(=O)N[C@@H](CCCCN)C(=O)N[C@@H](CCCCN)C(N)=O [Hel2A-2-Pen]
Survival of STAT3-deficient cells (STAT3-deficient MEFs): not affected
Growth and viability of normal cells [1]: not altered significantly
Survival of normal cells [2]: not affected
